Tests used:
[1] = Half life of the compound in PBS buffer at pH 7.3 by RP-18-HPLC analysis; type: physicochemical
[2] = system: Human immunodeficiency virus 1; experiment: Antiviral activity against HIV-1 HE infected in human CEM/0 cells assessed as inhibition of virus-induced cytopathogenicity measured after 4 to 5 days by microscopic analysis; type: functional, organism-based; settings: Human immunodeficiency virus 1, HE, CCRF-CEM
[3] = system: Human immunodeficiency virus 2; experiment: Antiviral activity against HIV-2 ROD infected in human CEM/0 cells assessed as inhibition of virus-induced cytopathogenicity measured after 4 to 5 days by microscopic analysis; type: functional, organism-based; settings: Human immunodeficiency virus 2, ROD, CCRF-CEM
[4] = system: Human immunodeficiency virus 2; experiment: Antiviral activity against HIV-2 ROD infected in human CEM/TK- cells assessed as inhibition of virus-induced cytopathogenicity measured after 4 to 5 days by microscopic analysis; type: functional, organism-based; settings: Human immunodeficiency virus 2, ROD, CCRF-CEM
[5] = Cytotoxicity against human CEM/0 cells assessed as inhibition of cell proliferation; type: toxicity, cell-based, CCRF-CEM
[6] = Selectivity index, ratio of CC50 for cytotoxicity against human CEM/0 cells to EC50 for antiviral activity against HIV-2 ROD infected in human CEM/0 cells; type: toxicity, cell-based; settings: read-out: Ratio CC50/EC50
[7] = Lipophilicity of the compound assessed as retention time by RP-18-HPLC analysis; type: physicochemical
[8] = Drug metabolism assessed as d4TTP metabolite formation in presence of pig liver esterase by RP-18-HPLC analysis; type: ADME, Sus scrofa; settings: isolated protein
[9] = Drug metabolism assessed as [4-[[hydroxy-[hydroxy-[hydroxy-[hydroxy-[[(2S,5R)-5-(5-methyl-2,4-dioxo-pyrimidin-1-yl)-2,5-dihydrofuran-2-yl]methoxy]phosphoryl]oxy-phosphoryl]oxy-phosphoryl]oxy-phosphoryl]oxymethyl]phenyl]-decanoate formation in presence of pig liver esterase by RP-18-HPLC analysis; type: ADME, Sus scrofa; settings: isolated protein
[10] = Drug metabolism assessed as d4T4P metabolite formation in presence of pig liver esterase by RP-18-HPLC analysis; type: ADME, Sus scrofa; settings: isolated protein
[11] = Drug metabolism in human CEM/0 cells assessed as half life of d4TTP by RP18-HPLC analysis; type: ADME, cell-based; settings: ccrf-cem
[12] = Drug metabolism in human CEM/0 cells assessed as [4-[[hydroxy-[hydroxy-[hydroxy-[hydroxy-[[(2S,5R)-5-(5-methyl-2,4-dioxo-pyrimidin-1-yl)-2,5-dihydrofuran-2-yl]methoxy]phosphoryl]oxy-phosphoryl]oxy-phosphoryl]oxy-phosphoryl]oxymethyl]phenyl]-decanoate formation by RP18-HPLC analysis; type: ADME, cell-based; settings: ccrf-cem
[13] = Drug metabolism in human CEM/0 cells assessed as half life of d4T4P by RP18-HPLC analysis; type: ADME, cell-based; settings: ccrf-cem
[14] = Drug metabolism in citrate-stabilized human plasma assessed as [4-[[hydroxy-[hydroxy-[hydroxy-[hydroxy-[[(2S,5R)-5-(5-methyl-2,4-dioxo-pyrimidin-1-yl)-2,5-dihydrofuran-2-yl]methoxy]phosphoryl]oxy-phosphoryl]oxy-phosphoryl]oxy-phosphoryl]oxymethyl]phenyl]-decanoate formation by RP-18-HPLC analysis; type: ADME, cell-free
[15] = Drug metabolism in citrate-stabilized human plasma assessed as d4T formation by RP-18-HPLC analysis; type: ADME, cell-free
[16] = Drug metabolism in PBS buffer assessed as d4TMP metabolite formation at pH 7.3 by RP-18-HPLC analysis; type: ADME
[17] = Drug metabolism in human CEM/0 cells assessed as d4TDP metabolite formation by RP18-HPLC analysis; type: ADME, cell-based; settings: ccrf-cem
[18] = Half life of the compound in human CEM/0 extracts by RP-18-HPLC analysis; type: ADME, CCRF-CEM; settings: CEM/0 cell extracts
[19] = Stability of compound assessed as pig liver esterase mediated hydrolysis by measuring half life by RP-18-HPLC analysis; type: ADME, tissue-based, Sus scrofa
[20] = Drug metabolism in citrate-stabilized human plasma assessed as d4TTP formation by RP18-HPLC analysis; type: ADME, cell-free
[21] = Drug metabolism in citrate-stabilized human plasma assessed as d4TDP formation by RP18-HPLC analysis; type: ADME, cell-free
[22] = Drug metabolism in citrate-stabilized human plasma assessed as d4TMP formation by RP18-HPLC analysis; type: ADME, cell-free
[23] = Drug metabolism in citrate-stabilized human plasma assessed as [hydroxy-[hydroxy-[hydroxy-[[(2S,5R)-5-(5-methyl-2,4-dioxo-pyrimidin-1-yl)-2,5-dihydrofuran-2-yl]methoxy]phosphoryl]oxy-phosphoryl]oxy-phosphoryl] octadecyl hydrogen phosphate formation by RP18-HPLC analysis; type: ADME, cell-free
[24] = Drug metabolism in citrate-stabilized human plasma assessed as [hydroxy-[hydroxy-[hydroxy-[[(2S,5R)-5-(5-methyl-2,4-dioxo-pyrimidin-1-yl)-2,5-dihydrofuran-2-yl]methoxy]phosphoryl]oxy-phosphoryl]oxy-phosphoryl]oxy-octadecyl-phosphinic acid formation by RP18-HPLC analysis; type: ADME, cell-free
[25] = Selectivity index, ratio of CC50 for cytotoxicity against human CEM/TK- cells to EC50 for antiviral activity against HIV-2 ROD infected in human CEM/TK- cells; type: toxicity, cell-based; settings: read-out: Ratio CC50/EC50
[26] = Drug metabolism assessed as [hydroxy-[hydroxy-[hydroxy-[[(2S,5R)-5-(5-methyl-2,4-dioxo-pyrimidin-1-yl)-2,5-dihydrofuran-2-yl]methoxy]phosphoryl]oxy-phosphoryl]oxy-phosphoryl]oxy-octadecyl-phosphinic acid formation in presence of pig liver esterase by RP-18-HPLC analysis; type: ADME, Sus scrofa; settings: isolated protein
[27] = Drug metabolism in human CEM/0 cells assessed as [hydroxy-[hydroxy-[hydroxy-[[(2S,5R)-5-(5-methyl-2,4-dioxo-pyrimidin-1-yl)-2,5-dihydrofuran-2-yl]methoxy]phosphoryl]oxy-phosphoryl]oxy-phosphoryl]oxy-octadecyl-phosphinic acid formation by RP18-HPLC analysis; type: ADME, cell-based; settings: ccrf-cem
[28] = Drug metabolism in human CEM/0 cells assessed as d4TTP metabolite formation by RP18-HPLC analysis; type: ADME, cell-based; settings: ccrf-cem
[29] = Drug metabolism assessed as [hydroxy-[hydroxy-[hydroxy-[[(2S,5R)-5-(5-methyl-2,4-dioxo-pyrimidin-1-yl)-2,5-dihydrofuran-2-yl]methoxy]phosphoryl]oxy-phosphoryl]oxy-phosphoryl] octadecyl hydrogen phosphate formation in presence of pig liver esterase by RP-18-HPLC analysis; type: ADME, Sus scrofa; settings: isolated protein
[30] = Drug metabolism in human CEM/0 cells assessed as [hydroxy-[hydroxy-[hydroxy-[[(2S,5R)-5-(5-methyl-2,4-dioxo-pyrimidin-1-yl)-2,5-dihydrofuran-2-yl]methoxy]phosphoryl]oxy-phosphoryl]oxy-phosphoryl] octadecyl hydrogen phosphate formation by RP18-HPLC analysis; type: ADME, cell-based; settings: ccrf-cem

SMILES: CCCCCCCCCCCCCCCCCCOP(=O)(OCc1ccc(OC(=O)CCCC)cc1)OP(=O)(O)OP(=O)(O)OC[C@@H]1C=C[C@H](n2cc(C)c(=O)[nH]c2=O)O1 (stereo partly drawn)
- half-life [1]: 237 h
- EC50 [2]: 180 nM
- EC50 [3]: 160 nM
- EC50 [4]: 170 nM
- CC50 [5]: 13000 nM
- selectivity ratio [6]: 76

SMILES: CCCCOP(=O)(OCCCC)OP(=O)(O)OP(=O)(O)OP(=O)(O)OC[C@@H]1C=C[C@H](n2cc(C)c(=O)[nH]c2=O)O1
- Retention_time [7]: 10.2 min

SMILES: CCCCCCCCCC(=O)Oc1ccc(COP(=O)(OCc2ccc(OC(=O)CCCCCCCCC)cc2)OP(=O)(O)OP(=O)(O)OP(=O)(O)OC[C@@H]2C=C[C@H](n3cc(C)c(=O)[nH]c3=O)O2)cc1
- Retention_time [7]: 15.2 min
- Drug metabolism [8]: Metabolite_Detected
- Drug metabolism [9]: Metabolite_Detected
- Drug metabolism [10]: Metabolite_Detected
- t1/2 [11]: 0.633 h
- Drug metabolism [12]: Metabolite_Detected
- t1/2 [13]: 0.367 h
- Drug metabolism [14]: Metabolite_Detected
- Drug metabolism [15]: Metabolite_Detected

SMILES: CCCCCCCCCCCCCCCCCCOP(=O)(OCCCC)OP(=O)(O)OP(=O)(O)OP(=O)(O)OC[C@@H]1C=C[C@H](n2cc(C)c(=O)[nH]c2=O)O1 (stereo partly drawn)
- Retention_time [7]: 14.5 min
- Drug metabolism [16]: Metabolite_Detected
- Drug metabolism [8]: Metabolite_Detected
- t1/2 [11]: 0.633 h
- Drug metabolism [17]: Metabolite_Detected

SMILES: CCCCCCCCCC(=O)Oc1ccc(COP(=O)(OCc2ccc(OC(=O)CCCCCCCCC)cc2)OP(=O)(O)OP(=O)(O)OC[C@@H]2C=C[C@H](n3cc(C)c(=O)[nH]c3=O)O2)cc1
- half-life [1]: 44 h
- half-life [18]: 2.8 h
- half-life [19]: 4.92 min
- Retention_time [7]: 16.3 min

SMILES: CCCCCCCCCCCCCCCCCCOP(=O)(OCC(CC)CCCC)OP(=O)(O)OP(=O)(O)OP(=O)(O)OC[C@@H]1C=C[C@H](n2cc(C)c(=O)[nH]c2=O)O1 (stereo partly drawn)
- Retention_time [7]: 15.2 min

SMILES: CCCCCCCCCCCCCCCCCCOP(=O)(OCCCC)OP(=O)(O)OP(=O)(O)OC[C@@H]1C=C[C@H](n2cc(C)c(=O)[nH]c2=O)O1 (stereo partly drawn)
- EC50 [2]: 70 nM
- EC50 [3]: 41 nM
- EC50 [4]: 32 nM

SMILES: CCCCCCCCCCCCOP(=O)(OCCCCCCCCCCCC)OP(=O)(O)OP(=O)(O)OP(=O)(O)OC[C@@H]1C=C[C@H](n2cc(C)c(=O)[nH]c2=O)O1
- Retention_time [7]: 14.7 min

SMILES: CCCCCCCCCCCCCCCCCCP(=O)(OCCCC)OP(=O)(O)OP(=O)(O)OP(=O)(O)OC[C@@H]1C=C[C@H](n2cc(C)c(=O)[nH]c2=O)O1 (stereo partly drawn)
- Retention_time [7]: 14.4 min
- Drug metabolism [16]: Metabolite_Detected
- Drug metabolism [8]: Metabolite_Detected
- t1/2 [11]: 0.633 h
- Drug metabolism [17]: Metabolite_Detected
- Drug metabolism [20]: Metabolite_Notdetected
- Drug metabolism [21]: Metabolite_Notdetected
- Drug metabolism [22]: Metabolite_Notdetected
- Drug metabolism [23]: Metabolite_Notdetected
- Drug metabolism [24]: Metabolite_Notdetected

SMILES: Cc1cn([C@H]2C=C[C@@H](CO)O2)c(=O)[nH]c1=O [STAVUDINE]
- selectivity ratio [6]: 1
- selectivity ratio [25]: 1

SMILES: CCCCCCCCCCCCCCCCCCOP(=O)(O)OP(=O)(O)OP(=O)(O)OP(=O)(O)OC[C@@H]1C=C[C@H](n2cc(C)c(=O)[nH]c2=O)O1
- Retention_time [7]: 13.3 min

SMILES: CCCCCCCCCCCCCCCCCCP(=O)(OCC(CC)CCCC)OP(=O)(O)OP(=O)(O)OP(=O)(O)OC[C@@H]1C=C[C@H](n2cc(C)c(=O)[nH]c2=O)O1 (stereo partly drawn)
- Retention_time [7]: 15.1 min

SMILES: CCCCCCCCCCCCCCCCCCP(=O)(OCCCC)OP(=O)(O)OP(=O)(O)OC[C@@H]1C=C[C@H](n2cc(C)c(=O)[nH]c2=O)O1 (stereo partly drawn)
- EC50 [2]: 31 nM
- EC50 [3]: 35 nM
- EC50 [4]: 18 nM

SMILES: Cc1cn([C@H]2C=C[C@@H](COP(=O)(O)OP(=O)(O)OP(=O)(O)OP(=O)(O)O)O2)c(=O)[nH]c1=O
- Retention_time [7]: 10.2 min
- selectivity ratio [6]: 454

SMILES: CCCCCCCCCCCCCCCCCCP(=O)(OCc1ccc(OC(=O)CCCC)cc1)OP(=O)(O)OP(=O)(O)OC[C@@H]1C=C[C@H](n2cc(C)c(=O)[nH]c2=O)O1 (stereo partly drawn)
- half-life [1]: 646 h
- EC50 [2]: 7 nM
- EC50 [3]: 21 nM
- EC50 [4]: 42 nM
- selectivity ratio [6]: 452

SMILES: CCCCCCCCCCCCCCCCCCP(=O)(OCc1ccc(OC(=O)CCCC)cc1)OP(=O)(O)OP(=O)(O)OP(=O)(O)OC[C@@H]1C=C[C@H](n2cc(C)c(=O)[nH]c2=O)O1 (stereo partly drawn)
- Retention_time [7]: 15.2 min
- Drug metabolism [8]: Metabolite_Detected
- Drug metabolism [26]: Metabolite_Detected
- Drug metabolism [27]: Metabolite_Detected
- Drug metabolism [17]: Metabolite_Detected
- EC50 [4]: 6 nM
- Drug metabolism [28]: Metabolite_Detected

SMILES: CCCCCCCCCCCCCCCCCCOP(=O)(OCc1ccc(OC(=O)CCCC)cc1)OP(=O)(O)OP(=O)(O)OP(=O)(O)OC[C@@H]1C=C[C@H](n2cc(C)c(=O)[nH]c2=O)O1 (stereo partly drawn)
- Retention_time [7]: 15.3 min
- Drug metabolism [8]: Metabolite_Detected
- Drug metabolism [29]: Metabolite_Detected
- Drug metabolism [30]: Metabolite_Detected
- Drug metabolism [17]: Metabolite_Detected
- Drug metabolism [23]: Metabolite_Detected
- Drug metabolism [15]: Metabolite_Detected
- Drug metabolism [28]: Metabolite_Detected

SMILES: CCCCCCCCCCCCCCCCCCOP(=O)(OCCCCCCCCCCCCCCCCCC)OP(=O)(O)OP(=O)(O)OP(=O)(O)OC[C@@H]1C=C[C@H](n2cc(C)c(=O)[nH]c2=O)O1
- Retention_time [7]: 20.7 min

SMILES: CCCCCCCCCCCCCCCCOC(=O)Oc1ccc(COP(=O)(OCc2ccc(OC(=O)CCCC)cc2)OP(=O)(O)OP(=O)(O)OP(=O)(O)OC[C@@H]2C=C[C@H](n3cc(C)c(=O)[nH]c3=O)O2)cc1 (stereo partly drawn)
- Retention_time [7]: 16 min

SMILES: CCCCCCCCCCCCCCCCCCP(=O)(O)OP(=O)(O)OP(=O)(O)OP(=O)(O)OC[C@@H]1C=C[C@H](n2cc(C)c(=O)[nH]c2=O)O1
- Retention_time [7]: 13.2 min
- selectivity ratio [6]: 105
